Data: publication PMC3189207, “DomPep—A General Method for Predicting Modular Domain-Mediated Protein-Protein Interactions” (PLoS ONE, 2011)
Residues, ends and D or L forms follow the SMILES beside them.

What was measured:
Scrib PDZ-1 domain = molecular target: T1, Scrib PDZ-1 domain (Homo sapiens, UniProt Q14160); test: In-solution fluorescence polarization binding of peptides to Scrib PDZ1; conditions: Kd value of 100 µM applied as binding cutoff, NB without definition, read-out: Kd (µM) PDZ1
T1 construct: ROC curves of DomPep prediction for the three Scrib PDZ-1/2/3 domains

Scrib PDZ-3 domain = molecular target: T2, Scrib PDZ-3 domain (Homo sapiens, UniProt Q14160); test: In-solution fluorescence polarization binding of peptides to Scrib PDZ3; conditions: Kd value of 100 µM applied as binding cutoff, NB without definition
T2 construct: ROC curves of DomPep prediction for the three Scrib PDZ-1/2/3 domains
T2 sequence (Q14160 1004-1093 limits assumed): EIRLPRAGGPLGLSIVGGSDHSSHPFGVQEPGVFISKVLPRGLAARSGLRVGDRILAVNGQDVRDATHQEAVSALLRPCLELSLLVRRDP
Excerpt: Because DomPep compared favorably to MDSM in identifying ligands for a PDZ domain included in the training set and to SPSSM in identifying binding peptides for an untrained PDZ domain, we next tested it whether it could reliably PPIs mediated by a PDZ domain on the genome scale. To this end, we employed three DomPep models to predict interactions between the Scrib PDZ domains and human proteins from the Swiss-Prot protein database. The three prediction models, which were generated for the mouse Scrib PDZ-1, PDZ-2 and PDZ-3 domains, were trained with 6, 5 and 30 positive peptide, respectively (Table S1). Searching the protein database with these models yielded a list of potential PDZ ligands. […] This experiment identified 14, 14, and 38 positives for the PDZ-1, -2, and -3 domains, respectively (Table 1). […] Importantly, we identified four peptides that were not included in the training set as physiological binders to the Scrib PDZ domains. The corresponding proteins, namely APC, LPP, VANGL2 and ZO2, were previously reported to interact with Scrib in vivo via its PDZ domains, [36], [37], [38], [39].
Figure 4 Application of DomPep to the prediction of PDZ-binding ligands. ROC curves of DomPep prediction for the three Scrib PDZ-1/2/3 domains using 56 peptides selected from the human protein database as the test set. The respective affinities of the three domains for the 56 peptides were measured by fluorescence polarization (Table 1).

Scrib PDZ-2 domain = molecular target: T3, Scrib PDZ-2 domain (Homo sapiens, UniProt Q14160); test: In-solution fluorescence polarization binding of peptides to Scrib PDZ2; conditions: Kd value of 100 µM applied as binding cutoff, NB without definition, read-out: Kd (µM) PDZ2
T3 construct: ROC curves of DomPep prediction for the three Scrib PDZ-1/2/3 domains
T3 sequence (Q14160 862-950 limits assumed): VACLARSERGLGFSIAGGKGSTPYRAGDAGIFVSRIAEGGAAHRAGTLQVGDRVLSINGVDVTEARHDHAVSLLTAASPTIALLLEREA

T1 sequence (Q14160 728-815 limits assumed): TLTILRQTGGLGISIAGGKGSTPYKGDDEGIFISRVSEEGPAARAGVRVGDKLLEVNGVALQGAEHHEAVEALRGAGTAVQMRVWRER

| Kd (Scrib PDZ-1 domain) [µM] | Kd (Scrib PDZ-3 domain) [µM] | Kd (Scrib PDZ-2 domain) [µM] | Structure (SMILES) |
| --- | --- | --- | --- |
| > 100 | > 100 | > 100 | CC(C)C[C@H](NC(=O)[C@@H](N)C(C)C)C(=O)N[C@@H](CCC(N)=O)C(=O)N[C@@H](CCCNC(=N)N)C(=O)N[C@@H](Cc1c[nH]cn1)C(=O)N[C@H](C(=O)N[C@H](C(=O)NCC(=O)N[C@@H](CCCCN)C(=O)N[C@@H](C)C(=O)O)[C@@H](C)O)[C@@H](C)O [ACBD6] (H-VLQRHTTGKA-OH; N-terminus and C-terminus assumed) |
| > 100 | > 100 | > 100 | CC[C@H](C)[C@H](NC(=O)[C@@H]1CCCN1C(=O)[C@@H](NC(=O)CNC(=O)[C@@H](NC(=O)[C@@H](NC(=O)[C@H](CC(N)=O)NC(=O)[C@@H](NC(=O)[C@H](CCC(N)=O)NC(=O)[C@@H](N)CC(=O)O)C(C)C)[C@@H](C)O)C(C)C)[C@@H](C)CC)C(=O)O [EPHA2] (H-DQVNTVGIPI-OH; N-terminus and C-terminus assumed) |
| 129 | > 100 | > 100 | CC(C)[C@H](NC(=O)[C@@H]1CCCN1C(=O)[C@@H](NC(=O)[C@@H]1CCCN1C(=O)CNC(=O)[C@H](CC(N)=O)NC(=O)[C@H](CCCCN)NC(=O)[C@H](CO)NC(=O)[C@H](CCC(N)=O)NC(=O)[C@@H](N)[C@@H](C)O)C(C)C)C(=O)O [EPHA3] (H-TQSKNGPVPV-OH) |
| > 100 | > 100 | > 100 | CC[C@H](C)[C@H](NC(=O)CNC(=O)[C@@H](NC(=O)CNC(=O)[C@H](Cc1c[nH]cn1)NC(=O)[C@H](CC(C)C)NC(=O)[C@H](Cc1c[nH]cn1)NC(=O)[C@@H](N)CC(C)C)[C@@H](C)O)C(=O)N[C@@H](CCC(N)=O)C(=O)N[C@H](C(=O)O)C(C)C [EPHA7] (H-LHLHGTGIQV-OH; N-terminus and C-terminus assumed) |
| > 100 | > 100 | > 100 | CC[C@H](C)[C@H](NC(=O)[C@@H]1CCCN1C(=O)[C@@H]1CCCN1C(=O)[C@@H](NC(=O)[C@H](CO)NC(=O)[C@H](Cc1ccc(O)cc1)NC(=O)[C@H](CC(C)C)NC(=O)[C@@H](NC(=O)[C@@H](NC(=O)[C@@H](N)CO)C(C)C)C(C)C)[C@@H](C)O)C(=O)O [FLT1] (H-SVVLYSTPPI-OH; N-terminus and C-terminus assumed) |
| > 100 | > 100 | > 100 | CC(C)C[C@H](NC(=O)[C@H](C)NC(=O)[C@@H](NC(=O)[C@H](CO)NC(=O)[C@@H](N)CO)[C@@H](C)O)C(=O)N[C@@H](Cc1c[nH]cn1)C(=O)N[C@@H](CCC(N)=O)C(=O)N[C@@H](Cc1c[nH]cn1)C(=O)N[C@@H](Cc1c[nH]cn1)C(=O)N[C@@H](Cc1ccccc1)C(=O)O [LIMD1] (H-SSTALHQHHF-OH; N-terminus and C-terminus assumed) |
| > 100 | – | > 100 | CC[C@H](C)[C@H](NC(=O)[C@H](CCC(N)=O)NC(=O)[C@@H](NC(=O)[C@@H](NC(=O)[C@H](Cc1c[nH]cn1)NC(=O)[C@H](CCC(N)=O)NC(=O)CNC(=O)[C@@H]1CCCN1C(=O)[C@H](C)NC(=O)[C@@H]1CCCN1)[C@@H](C)O)[C@@H](C)O)C(=O)O [STK16] (H-PAPGQHTTQI-OH) |
| > 100 | – | > 100 | CC(C)C[C@H](NC(=O)[C@H](CO)NC(=O)[C@H](CO)NC(=O)[C@H](CCC(=O)O)NC(=O)[C@H](Cc1ccc(O)cc1)NC(=O)[C@H](CO)NC(=O)[C@@H](NC(=O)[C@H](C)NC(=O)[C@@H](NC(=O)[C@@H](N)CCCCN)C(C)C)[C@@H](C)O)C(=O)O [STK29] (H-KVATSYESSL-OH) |
| > 100 | – | > 100 | CC[C@H](C)[C@H](NC(=O)[C@H](CC(=O)O)NC(=O)[C@H](CC(N)=O)NC(=O)[C@H](CC(C)C)NC(=O)[C@H](C)NC(=O)[C@H](CC(N)=O)NC(=O)[C@@H](N)CC(=O)O)C(=O)N[C@H](C(=O)N[C@@H](CO)C(=O)N[C@@H](CC(C)C)C(=O)O)[C@@H](C)O [TPM2] (H-DNALNDITSL-OH) |
| > 100 | – | 32.1 | CC[C@H](C)[C@H](NC(=O)[C@@H](NC(=O)[C@H](CCC(=O)O)NC(=O)[C@H](CO)NC(=O)[C@@H]1CCCN1C(=O)[C@H](CCC(N)=O)NC(=O)[C@H](C)NC(=O)[C@H](CO)NC(=O)[C@@H](N)CO)[C@@H](C)O)C(=O)N[C@@H](CC(C)C)C(=O)O [ZNF654] (H-SSAQPSETIL-OH) |
| 16 | – | > 100 | CC(C)C[C@H](NC(=O)[C@H](CCC(=O)O)NC(=O)[C@@H](NC(=O)[C@H](CC(=O)O)NC(=O)[C@H](Cc1ccc(O)cc1)NC(=O)[C@H](CCCNC(=N)N)NC(=O)[C@H](C)NC(=O)[C@H](CO)NC(=O)[C@@H](N)CCC(N)=O)[C@@H](C)O)C(=O)O [ZO2] (H-QSARYDTEL-OH) |

More lines, now with the values behind:

| Structure (SMILES) | Kd (Scrib PDZ-1 domain) [µM] | Kd (Scrib PDZ-3 domain) [µM] | Kd (Scrib PDZ-2 domain) [µM] |
| --- | --- | --- | --- |
| CC(C)C[C@H](NC(=O)[C@H](CCC(=O)O)NC(=O)[C@H](CCC(=O)O)NC(=O)[C@H](CCCNC(=N)N)NC(=O)[C@@H](NC(=O)[C@H](C)NC(=O)[C@H](CO)NC(=O)[C@@H](NC(=O)[C@H](CCCCN)NC(=O)[C@@H](N)CCC(=O)O)C(C)C)[C@@H](C)O)C(=O)O (H-EKVSATREEL-OH) | > 100 | 88.1 | > 100 |
| CC(C)C[C@H](NC(=O)[C@H](CC(C)C)NC(=O)[C@@H](NC(=O)CNC(=O)[C@H](Cc1ccc(O)cc1)NC(=O)[C@H](CC(C)C)NC(=O)[C@H](CCC(N)=O)NC(=O)[C@H](C)NC(=O)[C@@H](N)CCCCN)[C@@H](C)O)C(=O)N[C@@H](CC(N)=O)C(=O)O [BEGAIN] (H-KAQLYGTLLN-OH; N-terminus and C-terminus assumed) | > 100 | > 100 | > 100 |
| CC(C)C[C@H](NC(=O)[C@H](CCC(=O)O)NC(=O)[C@H](CCCNC(=N)N)NC(=O)[C@H](Cc1c[nH]c2ccccc12)NC(=O)[C@@H]1CCCN1C(=O)[C@@H]1CCCN1C(=O)[C@H](CC(=O)O)NC(=O)CNC(=O)[C@H](CCCNC(=N)N)NC(=O)[C@@H]1CCCN1)C(=O)O [C19orf57] (H-PRGDPPWREL-OH; N-terminus and C-terminus assumed) | > 100 | > 100 | > 100 |
| CSCC[C@H](NC(=O)[C@H](CC(C)C)NC(=O)[C@@H](NC(=O)[C@H](CS)NC(=O)[C@H](CCCCN)NC(=O)CNC(=O)[C@H](CCCCN)NC(=O)[C@@H](NC(=O)[C@H](CCCNC(=N)N)NC(=O)[C@@H](N)CC(=O)O)C(C)C)[C@@H](C)O)C(=O)O [DIRAS1] (H-DRVKGKCTLM-OH; N-terminus and C-terminus assumed) | > 100 | > 100 | > 100 |
| CC(C)[C@H](NC(=O)[C@H](CCCNC(=N)N)NC(=O)[C@@H](N)CC(=O)O)C(=O)N[C@@H](C)C(=O)N[C@@H](CCC(=O)O)C(=O)N[C@@H](CCC(N)=O)C(=O)N[C@@H](CC(=O)O)C(=O)N[C@H](C(=O)N[C@@H](CCC(N)=O)C(=O)N[C@@H](C)C(=O)O)[C@@H](C)O [MPG] (H-DRVAEQDTQA-OH) | > 100 | 186 | > 100 |
| CC(C)C[C@H](NC(=O)[C@H](CC(N)=O)NC(=O)[C@H](CCC(=O)O)NC(=O)CNC(=O)[C@@H]1CCCN1C(=O)[C@H](CCC(N)=O)NC(=O)[C@H](Cc1ccc(O)cc1)NC(=O)[C@H](CCC(N)=O)NC(=O)[C@@H]1CCCN1C(=O)[C@@H](N)CCC(=O)O)C(=O)O [SRC] (H-EPQYQPGENL-OH) | > 100 | – | > 100 |
| CSCC[C@H](NC(=O)[C@H](Cc1ccccc1)NC(=O)[C@H](C)NC(=O)[C@@H](N)Cc1c[nH]c2ccccc12)C(=O)N[C@@H](CCCNC(=N)N)C(=O)N[C@@H](Cc1ccc(O)cc1)C(=O)N[C@@H](CCCNC(=N)N)C(=O)N[C@@H](CCC(N)=O)C(=O)N[C@@H](CCC(N)=O)C(=O)N[C@@H](CC(C)C)C(=O)O [SYNJ2BP] (H-WAFMRYRQQL-OH) | > 100 | – | > 100 |
| CC[C@H](C)[C@H](NC(=O)[C@H](CO)NC(=O)[C@H](CO)NC(=O)[C@H](CCC(=O)O)NC(=O)[C@H](C)NC(=O)[C@H](CO)NC(=O)[C@H](C)NC(=O)[C@@H](NC(=O)[C@H](CC(=O)O)NC(=O)[C@@H](N)C(C)C)[C@@H](C)CC)C(=O)O [TANK] (H-VDIASAESSI-OH) | 102 | – | > 100 |
| CC(C)C[C@H](NC(=O)[C@H](CC(N)=O)NC(=O)[C@@H](NC(=O)[C@H](CCC(=O)O)NC(=O)[C@H](CC(=O)O)NC(=O)[C@H](Cc1c[nH]c2ccccc12)NC(=O)[C@H](C)NC(=O)[C@@H]1CCCN1C(=O)[C@H](CC(=O)O)NC(=O)[C@@H](N)CC(N)=O)[C@@H](C)O)C(=O)O [b-PIX] (H-NDPAWDETNL-OH) | 5.3 | – | 16.8 |
